This is an account of results in US9321718B2 (CHROMA THERAPEUTICS LTD., priority 2010, dated 2016).

In experiment [1] the target is T1, human recombinant his-tagged HSP90α (Homo sapiens, UniProt P07900).
T1 construct: purchased Prospec Technogene #HSP90
As to the kind of experiment: HSP90 enzyme assay (HTRF, competition with biotinylated Geldanamycin). It counts as binding. The note with it: IC50 range; read-out: Enzyme Assay. A digest of the protocol: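 HTRF competition: compounds (5000 to 0.3 nM, 0.5% DMSO) displace 40 nM biotinylated geldanamycin from 40 nM his-tagged HSP90α. Binding was read via Eu-cryptate anti-his/streptavidin-XL FRET after 20 h at room temperature in Hepes pH 7.3 buffer. IC50 was fitted against controls.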

Experiment [2] deals with TNFα release from LPS stimulated THP-1 (hCE-1 +ve) cells. As to the kind of experiment: LPS-stimulation of THP-1 cells (TNF-α release). The settings on record: Homo sapiens, THP-1; IC50 range; TNF-α after LPS 1 μg/ml, 6 hours; read-out: THP-1 Assay. It counts as cell-based, human. As to the method: THP-1 cells are plated in […] at a density of 4×10^4 cells/well in V-bottomed 96 well tissue culture treated plates and incubated at 37° C. in 5% CO2 for 16 hours. 2 Hours after the addition of the inhibitor in 100 μl of tissue culture media, the cells are stimulated with LPS (E. Coli strain 005:B5, Sigma) at a final concentration of 1 μg/ml and incubated at 37° C. in 5% CO2 for 6 hours. TNF-α levels are measured from cell-free supernatants by sandwich ELISA (R&D Systems #QTA00B).

The subject of experiment [3] is TNF-α levels in LPS-stimulated human whole blood. As to the kind of experiment: LPS-stimulation of human whole blood (TNF-α levels). It is filed as cell-based. The note with it: Homo sapiens; IC50 range; TNF-α after LPS 100 ng/ml, 6 hours. As to the method:
Whole blood is taken by venous puncture using heparinised vacutainers (Becton Dickinson) and diluted in an equal volume of RPMI1640 tissue culture media (Sigma). 100 μl is then plated in V-bottomed 96 well tissue culture treated plates. 2 Hours after the addition of the inhibitor in 100 μl of RPMI1640 media, the blood is stimulated with LPS (E. Coli strain 005:B5, Sigma) at a final concentration of 100 ng/ml and incubated at 37° C. in 5% CO2 for 6 hours. TNF-α levels are measured from cell-free supernatants by sandwich ELISA (R&D Systems #QTA00B).

As to `CC(C)c1cc(C(=O)N2CCC(CN[C@@H](COC(C)(C)C)C(=O)OC3CCCC3)CC2)c(O)cc1O` [Example 34, cyclopentyl O-tert-butyl-N-[(1-{[2,4-dihydroxy-5-(propan-2-yl)phenyl]carbonyl}piperidin-4-yl)methyl]-L-serinate], the IC50 in experiment [1] is less than 100 nM; in experiment [2], 100 to 1000 nM; in experiment [3], 100 to 1000 nM.
Turning to `CC(C)c1cc(C(=O)N2CCC(CN[C@H](C(=O)OC3CCCC3)c3ccccc3)CC2)c(O)cc1O` [Example 36, cyclopentyl (2S)-{[(1-{[2,4-dihydroxy-5-(propan-2-yl)phenyl]carbonyl}piperidin-4-yl)methyl]amino}(phenyl)ethanoate], the IC50 in experiment [1] is less than 100 nM; in experiment [2], 100 to 1000 nM; in experiment [3], 100 to 1000 nM.
As to `CC(C)C[C@H](NCCC1CCN(C(=O)c2cc(C(C)C)c(O)cc2O)CC1)C(=O)OC1CCCC1` [Example 38, cyclopentyl N-[2-(1-{[2,4-dihydroxy-5-(propan-2-yl)phenyl]carbonyl}piperidin-4-yl)ethyl]-L-leucinate], the IC50 in experiment [1] is less than 100 nM; in experiment [2], 100 to 1000 nM; in experiment [3], 100 to 1000 nM.
As for `CC(C)c1cc(C(=O)N2CCC(CCN[C@@H](Cc3ccccc3)C(=O)OC3CCCC3)CC2)c(O)cc1O` [Example 40, cyclopentyl N-[2-(1-{[2,4-dihydroxy-5-(propan-2-yl)phenyl]carbonyl}piperidin-4-yl)ethyl]-L-phenylalaninate], the IC50 in experiment [1] is greater than 1000 nM; in experiment [2], 100 to 1000 nM; in experiment [3], greater than 1000 nM.
Turning to `CC(C)c1cc(C(=O)N2CCC(CCNC(C)(C)C(=O)OC3CCCC3)CC2)c(O)cc1O` [Example 44, cyclopentyl N-[2-(1-{[2,4-dihydroxy-5-(propan-2-yl)phenyl]carbonyl}piperidin-4-yl)ethyl]-2-methylalaninate], the IC50 in experiment [1] was less than 100 nM; in experiment [2], less than 100 nM; in experiment [3], 100 to 1000 nM.
As for `CC(C)c1cc(C(=O)N2CCC(CCN[C@@H](COC(C)(C)C)C(=O)OC3CCCC3)CC2)c(O)cc1O` [Example 45, cyclopentyl O-tert-butyl-N-[2-(1-{[2,4-dihydroxy-5-(propan-2-yl)phenyl]carbonyl}piperidin-4-yl)ethyl]-L-serinate], the IC50 is less than 100 nM in experiment [1], 100 to 1000 nM in experiment [2] and 100 to 1000 nM in experiment [3].
For `CC(C)C[C@H](NCc1ccc2c(c1)CN(C(=O)c1cc(C(C)C)c(O)cc1O)C2)C(=O)OC1CCCC1` [Example 54, cyclopentyl N-[(2-{[2,4-dihydroxy-5-(propan-2-yl)phenyl]carbonyl}-2,3-dihydro-1H-isoindol-5-yl)methyl]-L-leucinate], the IC50 is less than 100 nM in experiment [1], 100 to 1000 nM in experiment [2] and 100 to 1000 nM in experiment [3].
For the compound `CC(C)c1cc(C(=O)N2Cc3ccc(CNC(C)(C)C(=O)OC4CCCC4)cc3C2)c(O)cc1O` [Example 55, cyclopentyl N-[(2-{[2,4-dihydroxy-5-(propan-2-yl)phenyl]carbonyl}-2,3-dihydro-1H-isoindol-5-yl)methyl]-2-methylalaninate], the figures for the IC50 in experiment [1], in experiment [2] and in experiment [3] were less than 100 nM, 100 to 1000 nM and 100 to 1000 nM, respectively.
Take `CC(C)c1cc(C(=O)N2Cc3ccc(CN[C@@H](C)C(=O)OC(C)(C)C)cc3C2)c(O)cc1O` [Example 56, tert-butyl N-[(2-{[2,4-dihydroxy-5-(propan-2-yl)phenyl]carbonyl}-2,3-dihydro-1H-isoindol-5-yl)methyl]-L-alaninate]: the IC50 was 100 to 1000 nM in experiment [1], greater than 1000 nM in experiment [2] and greater than 1000 nM in experiment [3].
On to `CC(C)c1cc(C(=O)N2Cc3ccc(CN[C@@H](C)C(=O)OC4CCCC4)cc3C2)c(O)cc1O` [Example 59, cyclopentyl N-[(2-{[2,4-dihydroxy-5-(propan-2-yl)phenyl]carbonyl}-2,3-dihydro-1H-isoindol-5-yl)methyl]-L-alaninate], for which the IC50 in experiment [1] was less than 100 nM; in experiment [2], less than 100 nM; in experiment [3], 100 to 1000 nM.
For the compound `CC(C)c1cc(C(=O)N2Cc3ccc(CNC4(C(=O)OC5CCCC5)CCCC4)cc3C2)c(O)cc1O` [Example 60, cyclopentyl 1-{[(2-{[2,4-dihydroxy-5-(propan-2-yl)phenyl]carbonyl}-2,3-dihydro-1H-isoindol-5-yl)methyl]amino}cyclopentanecarboxylate], the IC50 in experiment [1] was less than 100 nM; in experiment [2], less than 100 nM; in experiment [3] it was 100 to 1000 nM.
`CC(C)C[C@H](NCCc1ccc2c(c1)CN(C(=O)c1cc(C(C)C)c(O)cc1O)C2)C(=O)OC1CCCC1` [Example 61, cyclopentyl N-[2-(2-{[2,4-dihydroxy-5-(propan-2-yl)phenyl]carbonyl}-2,3-dihydro-1H-isoindol-5-yl)ethyl]-L-leucinate]: the IC50 was less than 100 nM in experiment [1], 100 to 1000 nM in experiment [2] and 100 to 1000 nM in experiment [3].
With `CC(C)C[C@H](NCCc1ccc2c(c1)CN(C(=O)c1cc(C(C)C)c(O)cc1O)C2)C(=O)OC(C)(C)C` [Example 62, tert-butyl N-[2-(2-{[2,4-dihydroxy-5-(propan-2-yl)phenyl]carbonyl}-2,3-dihydro-1H-isoindol-5-yl)ethyl]-L-leucinate], the IC50 is less than 100 nM in experiment [1], 100 to 1000 nM in experiment [2] and greater than 1000 nM in experiment [3].
Turning to `CC(C)c1cc(C(=O)N2Cc3ccc(CCNC4(C(=O)OC5CCCC5)CCCC4)cc3C2)c(O)cc1O` [Example 63, cyclopentyl 1-{[2-(2-{[2,4-dihydroxy-5-(propan-2-yl)phenyl]carbonyl}-2,3-dihydro-1H-isoindol-5-yl)ethyl]amino}cyclopentanecarboxylate], the IC50 was less than 100 nM in experiment [1], 100 to 1000 nM in experiment [2] and 100 to 1000 nM in experiment [3].
In the case of `CC(C)C[C@H](NCCCc1ccc2c(c1)CN(C(=O)c1cc(C(C)C)c(O)cc1O)C2)C(=O)OC1CCCC1` [Example 64, cyclopentyl N-[3-(2-{[2,4-dihydroxy-5-(propan-2-yl)phenyl]carbonyl}-2,3-dihydro-1H-isoindol-5-yl)propyl]-L-leucinate], the IC50 is less than 100 nM in experiment [1], less than 100 nM in experiment [2] and 100 to 1000 nM in experiment [3].
Consider `CC(C)c1cc(C(=O)N2Cc3ccc(CCCNC4(C(=O)OC5CCCC5)CCCC4)cc3C2)c(O)cc1O` [Example 65, cyclopentyl 1-{[3-(2-{[2,4-dihydroxy-5-(propan-2-yl)phenyl]carbonyl}-2,3-dihydro-1H-isoindol-5-yl)propyl]amino}cyclopentanecarboxylate], for which the IC50 in experiment [1] was less than 100 nM; in experiment [2] it was 100 to 1000 nM; in experiment [3] it was 100 to 1000 nM.
With `CC(C)C[C@H](NCc1cccc(CN(C)C(=O)c2cc(C(C)C)c(O)cc2O)c1)C(=O)OC1CCCC1` [Example 66, cyclopentyl N-(3-{[{[2,4-dihydroxy-5-(propan-2-yl)phenyl]carbonyl}(methyl)amino]methyl}benzyl)-L-leucinate], the IC50 in experiment [1] is less than 100 nM; in experiment [2], 100 to 1000 nM; in experiment [3] it was greater than 1000 nM.
For `CC(C)c1cc(C(=O)N(C)Cc2cccc(CNC(C)(C)C(=O)OC3CCCC3)c2)c(O)cc1O` [Example 67, cyclopentyl N-(3-{[{[2,4-dihydroxy-5-(propan-2-yl)phenyl]carbonyl}(methyl)amino]methyl}benzyl)-2-methylalaninate], in that order: less than 100 nM, 100 to 1000 nM and 100 to 1000 nM.
Consider `CC(C)c1cc(C(=O)N(C)Cc2cccc(CNC3(C(=O)OC4CCCC4)CCCC3)c2)c(O)cc1O` [Example 68, cyclopentyl 1-[(3-{[{[2,4-dihydroxy-5-(propan-2-yl)phenyl]carbonyl}(methyl)amino]methyl}benzyl)amino]cyclopentanecarboxylate], for which the IC50 is less than 100 nM in experiment [1], 100 to 1000 nM in experiment [2] and greater than 1000 nM in experiment [3].
As for `CC(C)c1cc(C(=O)N(C)Cc2cccc(CN[C@H](C(=O)OC3CCCC3)c3ccccc3)c2)c(O)cc1O` [Example 69, cyclopentyl (2S)-[(3-{[{[2,4-dihydroxy-5-(propan-2-yl)phenyl]carbonyl}(methyl)amino]methyl}benzyl)amino](phenyl)ethanoate], the IC50 in experiment [1] is 100 to 1000 nM; in experiment [2] it was greater than 1000 nM; in experiment [3], greater than 1000 nM.
For the compound `CC(C)C[C@H](NCc1ccc(CN(C)C(=O)c2cc(C(C)C)c(O)cc2O)cc1)C(=O)OC1CCCC1` [Example 70, cyclopentyl N-(4-{[{[2,4-dihydroxy-5-(propan-2-yl)phenyl]carbonyl}(methyl)amino]methyl}benzyl)-L-leucinate], the results for the IC50 in experiment [1], in experiment [2] and in experiment [3] were less than 100 nM, 100 to 1000 nM and 100 to 1000 nM, respectively.
